Test results as given in patent publication US20240376120A1, “CAMPTOTHECIN COMPOUND, PREPARATION METHOD THEREFOR AND USE THEREOF” (priority 2021, published 2024).
Like-named read-outs stand apart in the source and are kept apart here.

Columns and labels:
Type in all cases: cell-based
Settings in all cases: Homo sapiens
[1] = tested on: MCF-7 cells (human breast cancer cells); test: MCF-7 cell proliferation inhibitory assay (CellTiter-Glo)
Procedure: • 1). […] Resuspend an appropriate amount of cell suspension to 4000 cells/100 μL according to the count, mixed well and then put the corresponding number of cells into a 96-well plate by pipette. • 3). Each hole of the edge was sealed with 100 μL DPBS and put into an incubator for culture. • 4). Day 1 drug addition: Prepare the storage solution of the compound to be tested 1 hour in advance. 24 h after plating, the culture medium was gradiently diluted to a concentration twice the final concentration of each group. Take out the plated cells from the incubator and add 100 μL of the corresponding 2-fold concentration medium to each well by pipette.
Day 1 detected: Take out the plate to be tested and an appropriate amount of CTG in advance and rewarm it at room temperature in the dark. 50 μL of CTG was added to each well at 24 h. Shake with the oscillator for 5 minutes, and after balancing in the dark for 5 minutes, detect the luminescence value with a microplate reader; The mixture was shaken for 5 min, and after equilibration in the dark for 5 min, the luminescence value was detected with ELISA. • 6). Day 4 detection: Take an appropriate amount of CTG 1 h in advance and rewarm it at room temperature in the dark. At the same time, take out the plate to be tested from the incubator and leave it to equilibrate at room temperature for 30 minutes; 72 h after adding the drug, 100 μL of culture medium was sucked out with pipette carefully from each cell well, and 50 μL of CTG was added. The mixture was shaken for 5 min, and after equilibration in the dark for 5 min, the luminescence value was detected with ELISA analyzer. • 7). Data analysis and processed.
Collect data and convert it into survival rate: Inhibition rate (%)=(100−(OD value of compound-OD value on the first day)/(OD value of control well-OD value on the first day))×100%
(§1) Input the compound into graphpad prism to obtain the corresponding IC50 value.

[2] = tested on: MDA-MB-435s cells (human melanoma cells); test: MDA-MB-435s cell proliferation inhibitory assay (CellTiter-Glo)
Procedure: (§2) • 1). […] Resuspend an appropriate amount of cell suspension to 3000 cells/100 μL according to the count, mixed well and then put the corresponding number of cells into a 96-well plate by pipette. • 3). Each hole of the edge was sealed with 100 μL DPBS and put into an incubator for culture. • 4). Day 1 drug addition: Prepare the storage solution of the compound to be tested 1 hour in advance. 24 h after plating, the culture medium was gradiently diluted to a concentration twice the final concentration of each group. Take out the plated cells from the incubator and add 100 μL of the corresponding 2-fold concentration medium to each well by pipette. • 5). Day 1 detected: Take out an appropriate amount of CTG 1 h in advance and the plate was allowed to equilibrate at room temperature for 30 min. 100 μL of CTG was added to each well and shaken for 5 mins, and then standed in the dark for 5 mins, the luminescence value was detected by ELISA. • 6). Day 4 detection: Take an appropriate amount of CTG 1 h in advance and rewarm it at room temperature in the dark. At the same time, take out the plate to be tested from the incubator and leave it to equilibrate at room temperature for 30 minutes; 72 h after adding the drug, 100 μL of culture medium was sucked out with pipette carefully from each cell well, and 100 μL of CTG was added. The mixture was shaken for 5 min, and after equilibration in the dark for 5 min, the luminescence value was detected with ELISA. • 7). Analyze data and write detailed experimental records.
Collect data and convert it into survival rate: Inhibition rate (%)=(100−(OD value of compound−OD value on the first day)/(OD value of control well-OD value on the first day))×100%
as §1

[3] = tested on: MDA-MB-231 cells (human breast cancer cells); test: MDA-MB-231 cell proliferation inhibitory assay (CellTiter-Glo)
Procedure: as §2, §1

[4] = MCF7, 72 h, read-out: Proliferation inhibition IC50
[5] = MDA-MB-435S, 72 h, read-out: Proliferation inhibition IC50
[6] = MDA-MB-231, 72 h, read-out: Proliferation inhibition IC50

Compound	IC50 [1, 4]	IC50 [2, 5]	IC50 [3, 6]	IC50 ([1]; MCF7, read-out: MCF-7 Proliferation inhibition IC50)	IC50 ([3]; MDA-MB-231, read-out: MDA-MB-231 Proliferation inhibition IC50)	IC50 ([2]; MDA-MB-435S, read-out: MDA-MB-435s Proliferation inhibition IC50)	IC50 ([3]; MDA-MB-231 cells, 72 h after adding the drug, Table 2, read-out: Proliferation inhibition IC50)	IC50 ([2]; MDA-MB-435s cells, 72 h after adding the drug, Table 3, read-out: Proliferation inhibition IC50)
CC[C@@]1(O)C(=O)OCc2c1cc1n(c2=O)Cc2cc3ccccc3nc2-1 [Camptothecin]	0.0422 µM	0.0102 µM	–	–	–	–	–	–
CC[C@@]1(O)C(=O)OCc2c1cc1n(c2=O)Cc2c-1nc1cc(F)c(C)cc1c2[C@@H](C)NC(C)=O [Compound 1f-1]	0.0152 µM	0.0058 µM	0.11 µM	–	–	–	–	–
CC[C@@]1(O)C(=O)OCc2c1cc1n(c2=O)Cc2c-1nc1cc(F)c(C)cc1c2[C@H](C)NC(C)=O [Compound 1f-2]	0.0116 µM	0.0035 µM	0.0742 µM	–	–	–	–	–
CC[C@@]1(O)C(=O)OCc2c1cc1n(c2=O)Cc2c-1nc1cc(F)c(C)cc1c2[C@H](C)N [Example 2]	0.0026 µM	0.0023 µM	0.0157 µM	–	–	–	–	–
CC[C@@]1(O)C(=O)OCc2c1cc1n(c2=O)Cc2c-1nc1ccccc1c2[C@@H](C)N [Example 3]	0.0155 µM	0.0112 µM	0.12 µM	–	–	–	–	–
CC[C@@]1(O)C(=O)OCc2c1cc1n(c2=O)Cc2c-1nc1ccccc1c2[C@H](C)N [Example 4]	0.0102 µM	0.0163 µM	0.28 µM	–	–	–	–	–
CC[C@@]1(O)C(=O)OCc2c1cc1n(c2=O)Cc2c-1nc1ccc(O)cc1c2[C@@H](C)N [Example 5]	0.0123 µM	0.0203 µM	0.6 µM	–	–	–	–	–
CC[C@@]1(O)C(=O)OCc2c1cc1n(c2=O)Cc2c-1nc1ccc(O)cc1c2[C@H](C)N [Example 6]	0.0084 µM	0.0368 µM	1.1 µM	–	–	–	–	–
CC[C@@]1(O)C(=O)OCc2c1cc1n(c2=O)Cc2c-1nc1cc(F)c(C)cc1c2C(C)(C)N [Example 7]	0.0202 µM	0.162 µM	0.32 µM	–	–	–	–	–
CC[C@@]1(O)C(=O)OCc2c1cc1n(c2=O)Cc2c-1nc1cc(F)c(C)cc1c2[C@@H]1CCCN1 [Example 8]	0.0103 µM	0.0352 µM	0.21 µM	–	–	–	–	–
CC[C@@H](N)c1c2c(nc3ccccc13)-c1cc3c(c(=O)n1C2)COC(=O)[C@]3(O)CC [Example 9R]	0.0553 µM	0.0153 µM	0.18 µM	–	–	–	–	–
CC[C@H](N)c1c2c(nc3ccccc13)-c1cc3c(c(=O)n1C2)COC(=O)[C@]3(O)CC [Example 9]	0.0252 µM	0.0253 µM	0.31 µM	–	–	–	–	–
CC[C@@]1(O)C(=O)OCc2c1cc1n(c2=O)Cc2c-1nc1ccc(O)cc1c2[C@H](C)O [Example 12-1]	0.0322 µM	0.0382 µM	0.5 µM	–	–	–	–	–
CC[C@@]1(O)C(=O)OCc2c1cc1n(c2=O)Cc2c-1nc1ccc(O)cc1c2C(C)O (some centres unmarked) [Example 12]	0.0503 µM	0.0593 µM	1.2 µM	–	–	–	–	–
CC[C@@]1(O)C(=O)OCc2c1cc1n(c2=O)Cc2c-1nc1cc(F)c(C)cc1c2[C@@H](C)O [Example 12d]	0.0068 µM	0.0016 µM	0.0123 µM	0.0068 µM	0.0123 µM	0.0016 µM	–	–
CC[C@@]1(O)C(=O)OCc2c1cc1n(c2=O)Cc2c-1nc1cc(F)c(C)cc1c2[C@H](C)NC(=O)CO [Example 13]	0.0083 µM	–	–	–	–	–	0.0802 µM	0.0028 µM
CC[C@@]1(O)C(=O)OCc2c1cc1n(c2=O)Cc2c-1nc1cc(F)c(C)cc1c2[C@H](C)NC(=O)[C@H](C)O [Example 14]	0.0083 µM	0.0038 µM	0.0886 µM	–	–	–	–	–
CC[C@@]1(O)C(=O)OCc2c1cc1n(c2=O)Cc2c-1nc1cc(F)c(C)cc1c2[C@H](C)NC(=O)[C@@H](C)O [Example 15]	0.0106 µM	0.0042 µM	0.141 µM	–	–	–	–	–
